ChEMBL document CHEMBL1201862, “PubChem BioAssay data set” (2004)
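Protocol summary: plate cells (96-well), add compound at 5 concentrations, incubate 48 h, interpolate endpoints linearly. GI50 = concentration required for 50% inhibition of growth.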 Activity calls are given as the source filed them. Rule as the data show it: active = GI50 up to about 1.1 µM and inactive = higher.

Experiments:
Assay in all cases: DTP human tumour cell line panel, 48 h
[1] = test system: XF498
[2] = test system: DLD-1
[3] = test system: HOP-18
[4] = test system: SNB-78
[5] = test system: M19-MEL
[6] = test system: RXF 631
[7] = test system: DMS-114
[8] = test system: LXFL 529
[9] = test system: KM-20L2

| SMILES | GI50 [1] | GI50 [2] | GI50 [3] | GI50 [4] | GI50 [5] | GI50 [6] | GI50 [7] | GI50 [8] | GI50 [9] |
| --- | --- | --- | --- | --- | --- | --- | --- | --- | --- |
| C/C(=N\N=C(/[SeH])N1CC2CCC(CC2)C1)c1ccccn1 | < 0.01 µM (active) | < 0.01 µM (active) | 0.294 µM (active) | 0.216 µM (active) | 0.0449 µM (active) | 0.4 µM (active) | < 0.01 µM (active) | < 0.01 µM (active) | < 0.01 µM (active) |
| CN(C)CCNc1ccc2ncn3c4ccccc4c(=O)c1c23 | – | 1.96 µM (inactive) | 1.17 µM (inactive) | 3.04 µM (inactive) | 2.96 µM (inactive) | – | 2.02 µM (inactive) | 2.7 µM (inactive) | 2.13 µM (inactive) |
| CCOC(=O)CCC(NC(=O)c1ccc(/N=C/c2nc3cc(C(F)(F)F)ccc3nc2-c2ccccc2)cc1)C(=O)OCC (centres undefined) | 2.81 µM (inactive) | > 50 µM (inactive) | > 100 µM (inactive) | 10 µM (inactive) | > 50 µM (inactive) | – | 34.3 µM (inactive) | 43.1 µM (inactive) | > 50 µM (inactive) |
| C[N+]1=C(c2cccnc2/C=N/O)OCC1(C)C | > 100 µM (inactive) | > 100 µM (inactive) | > 100 µM (inactive) | > 100 µM (inactive) | > 100 µM (inactive) | – | > 100 µM (inactive) | > 100 µM (inactive) | > 100 µM (inactive) |
| COC(=O)C1C(=O)N(CCc2c[nH]c3ccccc23)C[C@@H]2CCC(=O)C[C@H]12 (some centres undefined) | > 100 µM (inactive) | > 100 µM (inactive) | – | > 100 µM (inactive) | > 100 µM (inactive) | > 100 µM (inactive) | > 100 µM (inactive) | > 100 µM (inactive) | – |
| CC1(C)CC(=O)C(=[N+]=[N-])C(=O)C1 | > 100 µM (inactive) | > 100 µM (inactive) | – | – | – | – | > 100 µM (inactive) | > 100 µM (inactive) | > 100 µM (inactive) |
| O=C1CC(c2ccc(Cl)cc2)=Nc2ccccc2N1 | – | > 100 µM (inactive) | 40.9 µM (inactive) | 86.7 µM (inactive) | > 100 µM (inactive) | 74.6 µM (inactive) | 81.5 µM (inactive) | > 100 µM (inactive) | > 100 µM (inactive) |
| Cc1cc(O)nc(NN2C(Cl)C(=O)C2c2ccccc2O)n1 (centres undefined) | – | – | 1.6 µM (inactive) | 24.3 µM (inactive) | 3.84 µM (inactive) | – | 1.32 µM (inactive) | 2.62 µM (inactive) | 10.7 µM (inactive) |
| COc1ccc(/C=c2/sc3n(c2=O)NC2(CCCCC2)NN=3)cc1 | > 100 µM (inactive) | > 100 µM (inactive) | – | > 100 µM (inactive) | > 100 µM (inactive) | – | – | > 100 µM (inactive) | > 100 µM (inactive) |
| C=CCO/N=C(\OC(=O)c1ccc([N+](=O)[O-])cc1)c1ccccc1 | – | > 100 µM (inactive) | > 100 µM (inactive) | > 100 µM (inactive) | > 100 µM (inactive) | > 100 µM (inactive) | > 100 µM (inactive) | > 100 µM (inactive) | – |
| NC(=O)c1ccc(Cl)c([N+](=O)[O-])c1 | > 100 µM (inactive) | > 100 µM (inactive) | > 100 µM (inactive) | > 100 µM (inactive) | > 100 µM (inactive) | – | > 100 µM (inactive) | > 100 µM (inactive) | > 100 µM (inactive) |
| N#Cc1ccc(OCCSCCCCCCCCCCSCCOc2ccc(C#N)cc2)cc1 | – | – | > 100 µM (inactive) | > 100 µM (inactive) | > 100 µM (inactive) | – | 1.29 µM (inactive) | > 100 µM (inactive) | > 100 µM (inactive) |
| COC(=O)C1=CC2OC1(C)C1(CC1)C2=O (centres undefined) | 14.7 µM (inactive) | 14.3 µM (inactive) | – | – | 21 µM (inactive) | – | – | 18.5 µM (inactive) | 17.5 µM (inactive) |
| N#CC(C(=O)CCC(=O)C(C#N)c1ccccc1)c1ccccc1 (centres undefined) | > 100 µM (inactive) | > 100 µM (inactive) | > 100 µM (inactive) | > 100 µM (inactive) | > 100 µM (inactive) | – | > 100 µM (inactive) | > 100 µM (inactive) | – |
| COC1(OC)CCCCC2c3cccc(OC(C)=O)c3C21OC(C)=O (centres undefined) | 29.2 µM (inactive) | > 100 µM (inactive) | > 100 µM (inactive) | > 100 µM (inactive) | > 100 µM (inactive) | – | > 100 µM (inactive) | > 100 µM (inactive) | – |
| Cc1cccc(C)c1NC(=O)CCC(=O)NNc1nnc(C)n1N | > 100 µM (inactive) | > 100 µM (inactive) | > 100 µM (inactive) | > 100 µM (inactive) | > 100 µM (inactive) | > 100 µM (inactive) | > 100 µM (inactive) | > 100 µM (inactive) | > 100 µM (inactive) |
| NC(=S)N/N=C1\CCCC\C1=C/c1ccccc1 | – | 33.2 µM (inactive) | 38.2 µM (inactive) | > 100 µM (inactive) | 81.1 µM (inactive) | 89.3 µM (inactive) | 37.3 µM (inactive) | 31.4 µM (inactive) | > 100 µM (inactive) |
| COC(=O)C(Cc1nc2ccccc2nc1O)C(NO)C(=O)Nc1c(Cl)cc([N+](=O)[O-])cc1Cl (centres undefined) | – | 28.9 µM (inactive) | – | 40.8 µM (inactive) | – | – | 21.2 µM (inactive) | – | – |
| NC(=O)c1c2c(cc3c(=O)c4ccccc4[nH]c13)CCCC2 | > 100 µM (inactive) | > 73.1 µM (inactive) | > 100 µM (inactive) | – | > 100 µM (inactive) | > 100 µM (inactive) | > 100 µM (inactive) | > 100 µM (inactive) | > 100 µM (inactive) |
| CC1CC2C3CC(F)C4=CC(=O)C=CC4(C)C3(F)C(O)CC2(C)C1(O)C(=O)CO (centres undefined) | > 100 µM (inactive) | > 100 µM (inactive) | – | > 100 µM (inactive) | > 100 µM (inactive) | > 100 µM (inactive) | > 100 µM (inactive) | – | > 100 µM (inactive) |
| O=S(=O)(O)SC/C=C\CSS(=O)(=O)O | > 100 µM (inactive) | > 100 µM (inactive) | > 100 µM (inactive) | > 100 µM (inactive) | 98.9 µM (inactive) | 37.5 µM (inactive) | 42.7 µM (inactive) | > 100 µM (inactive) | > 100 µM (inactive) |
| CC12CCC[C@@](C)(C(=O)OC3OC(CO)C(O)C(O)C3O)[C@H]1CCC13CC4CC(OC4(CO)[C@H]1O)[C@@H]23 (some centres undefined) | > 100 µM (inactive) | > 100 µM (inactive) | > 100 µM (inactive) | > 100 µM (inactive) | > 100 µM (inactive) | > 100 µM (inactive) | 24.9 µM (inactive) | > 100 µM (inactive) | > 100 µM (inactive) |
| CC1CC[C@]2(C(=O)O)CCC3(COC(=O)/C=C\c4ccc(O)cc4)C(=CCC4[C@@]5(C)CC[C@H](O)C(C)(C)C5CC[C@]43C)[C@@H]2[C@H]1C (some centres undefined) | – | 10.8 µM (inactive) | 27.5 µM (inactive) | > 100 µM (inactive) | 21.7 µM (inactive) | 24.4 µM (inactive) | 25.7 µM (inactive) | 22.7 µM (inactive) | 18.4 µM (inactive) |
| CCN(CC)C(=S)S [DITIOCARB SODIUM] | 0.221 µM (active) | 88.5 µM (inactive) | > 100 µM (inactive) | > 100 µM (inactive) | 0.439 µM (active) | 3.27 µM (inactive) | 0.0968 µM (active) | > 100 µM (inactive) | 69 µM (inactive) |
